Measured values as given in PubChem BioAssay (NCI).
Where “and” joins values, the source holds several entries; their conditions need not be identical. Identical values can stand only once.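 Following 48 hours of exposure in 96-well plates, responses at five concentrations were used to interpolate endpoints linearly. GI50 = concentration required for 50% inhibition of growth. At the TGI there is no net growth.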

Assays:
Assay in all cases: inhibition of tumour cell growth, NCI panel, 48 h
OVCAR-4 ovarian = tested on: OVCAR-4 ovarian
SW-620 colon = tested on: SW-620 colon
A498 renal = tested on: A498 renal
UACC-257 melanoma = tested on: UACC-257 melanoma
BT-549 breast = tested on: BT-549 breast
HOP-92 NSCLC = tested on: HOP-92 NSCLC
PC-3 prostate = tested on: PC-3 prostate
SK-MEL-2 melanoma = tested on: SK-MEL-2 melanoma
CCRF-CEM leukemia = tested on: CCRF-CEM leukemia
TK-10 renal = tested on: TK-10 renal

Compound	TGI (OVCAR-4 ovarian)	TGI (SW-620 colon)	TGI (A498 renal)	TGI (UACC-257 melanoma)	TGI (BT-549 breast)	TGI (HOP-92 NSCLC)	TGI (PC-3 prostate)	TGI (SK-MEL-2 melanoma)	TGI (CCRF-CEM leukemia)	TGI (TK-10 renal)	GI50 (A498 renal)	GI50 (UACC-257 melanoma)
COc1cc(/C=C2\CCc3cc(OC)c(OC)cc3C2=O)cc(OC)c1	> 100 µM	> 100 µM	39.8 µM	> 100 µM	65.8 µM	> 100 µM	> 100 µM	> 57.8 µM	> 60 µM	> 100 µM	–	–
CCCCCC(/C=N/NC(N)=S)C(O)(C(F)(F)F)C(F)(F)F (centres undefined)	> 10 µM	> 10 µM	> 10 µM	> 10 µM	> 10 µM	> 10 µM	> 10 µM	> 10 µM	> 10 µM	> 10 µM	–	–
OCC1CCCCN1Cc1nc2ccc(Cl)cc2[nH]1 (centres undefined)	> 100 µM	> 100 µM	> 100 µM	> 100 µM	> 100 µM	> 100 µM	> 100 µM	> 100 µM	> 100 µM	> 100 µM	–	–
O=[N+]([O-])C(=C/C1CCCCC1)/C(=C\C1CCCCC1)[N+](=O)[O-]	40.1 µM	17.4 µM	30 µM	23.5 µM	12.5 µM	20.2 µM	34.4 µM	37.8 µM	17.7 µM	16.8 µM	–	–
CNC=O	> 10000 µM	> 10000 µM	> 10000 µM	> 10000 µM	> 10000 µM	> 10000 µM	> 10000 µM	> 10000 µM	> 10000 µM	> 10000 µM	–	–
C/C=C/[C@@H]1O[C@H](CC#C[Si](C)(C)C)[C@@]2(C=O)C(C)=CC[C@H](C(C)C)[C@@H]12	51.7 µM	59.5 µM	89.6 µM	32.5 µM	49.7 µM	41.4 µM	33.8 µM	33.5 µM	6.24 µM	31.5 µM	–	–
COc1ccc2c(-c3ccc(O)cc3)c(Oc3ccccc3)c(=O)oc2c1	> 100 µM	> 100 µM	> 62 µM	> 100 µM	> 100 µM	> 87.8 µM	> 100 µM	> 100 µM	> 100 µM	18.1 µM	–	–
c1ccc2c(Cc3c[nH]c4ccccc34)c[nH]c2c1	35.3 µM	61.6 µM	> 100 µM	34.5 µM	36.8 µM	35.6 µM	38.3 µM	52.6 µM	37.2 µM	35.2 µM	–	–
O=C(c1ccco1)N1CCN(C(=O)c2ccco2)C1=S	35.2 µM	24.7 µM	35.8 µM	23.3 µM	33.9 µM	23.6 µM	17.5 µM	31 µM	5.7 µM	19.8 µM	16.6 µM	–
O=[N+]([O-])/C(C(Cl)=C(Cl)Cl)=C(/Sc1ccccc1)N1CCOCC1	28.4 µM	6.96 µM	28.1 µM	23.6 µM	15 µM	6.27 µM	14.8 µM	18.1 µM	4.66 µM	18.3 µM	–	–
O=S(=O)(NC(c1ccccc1)(c1cc2ccccc2[nH]1)c1cc2ccccc2n1S(=O)(=O)c1ccccc1)c1ccccc1 (centres undefined)	> 100 µM	> 100 µM	> 100 µM	> 100 µM	> 100 µM	> 100 µM	> 100 µM	> 100 µM	> 100 µM	> 100 µM	–	–
CC(=O)NC1CCC(NC(=O)OC(C)(C)C)C(NC(=O)OC(C)(C)C)C1 (centres undefined)	> 100 µM	> 100 µM	> 100 µM	> 100 µM	> 100 µM	> 100 µM	> 100 µM	> 100 µM	> 100 µM	> 100 µM	–	–
OCCCN(CCc1ccc(Cl)c(Cl)c1)CCN1CCCC1	> 100 µM	> 100 µM	44.6 µM	36 µM	> 100 µM	> 100 µM	> 100 µM	36.6 µM	> 100 µM	> 100 µM	–	–
C=CC1(CBr)CCC(C(C)(C)Br)O1 (centres undefined)	28 µM	10.5 µM	33.5 µM	28.9 µM	30.4 µM	28.6 µM	24.5 µM	28.1 µM	6.51 µM	28.5 µM	–	–
CCOC(=O)C1(Cc2ccccc2)CCN(C(=O)c2ccccc2)C2C1C2(Cl)Cl (centres undefined)	> 100 µM	> 100 µM	40 µM	36.3 µM	62.2 µM	55.6 µM	50.1 µM	31.1 µM	54.1 µM	59.8 µM	–	–
O=C(/C=C/c1ccc(Cl)c(Cl)c1)CCN1CCN(CCC(=O)/C=C/c2ccc(Cl)c(Cl)c2)CC1	46.7 µM	52.1 µM	> 100 µM	> 100 µM	59.8 µM	64.8 µM	57.1 µM	92.6 µM	> 100 µM	36.6 µM	–	–
COc1ccc(CN=C2Nc3ccncc3S(=O)(=O)N2c2ccccc2)cc1	> 100 µM	> 100 µM	> 100 µM	> 100 µM	89.4 µM	> 100 µM	> 100 µM	> 100 µM	82.4 µM	59.9 µM	–	–
C(/C=N/NC1=NCCN1)=N\NC1=NCCN1	> 100 µM	> 100 µM	> 100 µM	> 100 µM	> 100 µM	> 100 µM	> 100 µM	> 100 µM	> 100 µM	–	–	–
C/C(=N/NC(=S)N(Cc1ccccn1)Cc1ccccn1)c1cnccn1	8.14 µM	49.2 µM	> 100 µM	8.61 µM	12.7 µM	> 37.6 µM	26 µM	26 µM	> 100 µM	19.2 µM	–	–
C=C(Br)C(Cl)(CBr)CCC(Br)C(C)(C)Cl (centres undefined)	> 10 µM	> 10 µM	> 10 µM	–	> 10 µM	> 10 µM	> 10 µM	> 10 µM	> 10 µM	> 10 µM	–	–
CC1(C)OC[C@@]2([C@@H]3CC[C@@H](C3)C2(C)C)N1O	> 100 µM	> 100 µM	> 100 µM	> 100 µM	> 100 µM	> 100 µM	> 100 µM	> 100 µM	> 100 µM	> 100 µM	–	–
C=C1CC(CNc2cc(Cl)nc(N)n2)C1	> 100 µM	> 100 µM	76.3 µM	> 100 µM	> 100 µM	> 100 µM	> 100 µM	> 100 µM	> 100 µM	> 100 µM	–	–

Compound	TGI (OVCAR-4 ovarian)	TGI (SW-620 colon)	TGI (A498 renal)	TGI (UACC-257 melanoma)	TGI (BT-549 breast)	TGI (HOP-92 NSCLC)	TGI (PC-3 prostate)	TGI (SK-MEL-2 melanoma)	TGI (CCRF-CEM leukemia)	TGI (TK-10 renal)	GI50 (A498 renal)	GI50 (UACC-257 melanoma)
Cc1ccc(NC(=S)NNC(=O)c2cc(-c3ccccc3)nc3ccccc23)cc1C	58.2 µM	> 100 µM	34.2 µM	60.1 µM	44.2 µM	48.8 µM	42.9 µM	37.3 µM	52 µM	63.1 µM	–	–
Cc1ccnc2c1c(=O)c1ccccc1n2C	> 100 µM	> 100 µM	> 100 µM	> 100 µM	81.9 µM	> 100 µM	> 100 µM	> 100 µM	> 100 µM	89.8 µM	–	–
C=CCOc1ccc(C2c3c([nH][nH]c3=O)CC(C)(O)C2C(=O)OC)cc1OC (centres undefined)	> 100 µM	> 100 µM	> 100 µM	> 100 µM	> 100 µM	> 100 µM	> 100 µM	> 100 µM	> 100 µM	> 100 µM	–	–
CCOC(=O)NNC1(SC)NC(=O)c2c(cc(Cl)oc2=O)O1 (centres undefined)	18.9 µM	> 37 µM	29.2 µM	30.4 µM	12.2 µM	4.63 µM	13.2 µM	24 µM	10.5 µM	10.1 µM	–	–
CC1(C)SC2C(NC(=O)Cc3ccccc3)C(=O)N2C1C(=O)O (centres undefined)	> 100 µM	> 100 µM	> 100 µM	> 100 µM	> 100 µM	> 100 µM	> 100 µM	> 100 µM	–	> 100 µM	–	–
COc1cccc2c1C(=O)c1ccc3cc(CO)cc(O)c3c1C2=O	2.03 µM	1.2 µM	9.62 µM	0.412 µM	6.31 µM	2.84 µM	1.17 µM	2.99 µM	2.02 µM	8.43 µM	–	–
CSCCCNC(=O)c1csc([C@@H](CSC)NC(=O)CCNC(=O)[C@@H](NC(=O)OCC(Br)(Br)Br)C(C)O)n1 (some centres undefined)	> 100 µM	> 100 µM	> 100 µM	> 100 µM	> 100 µM	> 100 µM	> 100 µM	> 100 µM	> 100 µM	> 100 µM	–	–
CC1C=C(NCC2(CO)CCC2)NC(N)=N1 (centres undefined)	> 100 µM	> 100 µM	> 100 µM	> 100 µM	> 100 µM	> 100 µM	> 100 µM	> 100 µM	> 100 µM	–	–	–
Cc1ccc(N2C(=O)CC(=O)N(NC(=O)C(C)Oc3ccccc3C)C2=S)cc1 (centres undefined)	> 100 µM	> 100 µM	> 100 µM	> 100 µM	> 100 µM	> 100 µM	> 100 µM	> 100 µM	5.59 µM	> 100 µM	–	–
COc1ccc(C2c3cc4c(cc3OC(N3CCOCC3)C2C)OCO4)c(OC)c1 (centres undefined)	> 100 µM	52.5 µM	15 µM	85.1 µM	87.7 µM	15.9 µM	> 100 µM	21.7 µM	38.1 µM	69.6 µM	–	–
O=S(=O)(O)Nc1ccc(-c2nc3ccccc3s2)cc1Cl	> 100 µM	> 100 µM	> 100 µM	> 100 µM	> 100 µM	> 100 µM	> 100 µM	> 100 µM	> 100 µM	> 100 µM	–	–
COc1ccc(/C=N/n2c(Cc3ccc(Cl)cc3)n[nH]c2=O)cc1	> 100 µM	> 100 µM	> 100 µM	> 100 µM	> 100 µM	44.7 µM	> 100 µM	61.5 µM	> 100 µM	–	–	–
Cc1ccc(-c2c(C#N)c(S)n(NS(=O)(=O)c3ccccc3)c(=O)c2C#N)cc1	> 100 µM	70 µM	> 100 µM	> 100 µM	73.3 µM	> 100 µM	> 100 µM	> 100 µM	> 100 µM	65.7 µM	–	–
C=CCN1C(=O)/C(=C/c2cccs2)N=C1SC1OC(COC(=O)c2ccccc2)C(OC(=O)c2ccccc2)C1OC(=O)c1ccccc1 (centres undefined)	> 100 µM	> 100 µM	> 100 µM	> 100 µM	> 100 µM	> 100 µM	> 100 µM	> 100 µM	80.9 µM	> 100 µM	–	–
CCO[C@H]1C[C@@H](c2ccccc2)[C@]2(C)C[C@H](C(=O)OC)ON2O1	> 100 µM	> 100 µM	> 100 µM	> 100 µM	> 100 µM	> 100 µM	> 100 µM	> 100 µM	> 100 µM	> 100 µM	–	–
O=[N+]([O-])c1cccc2nc3ccccc3c(NCCNCCO)c12	0.0162 µM	–	0.0264 µM	0.034 µM and 0.0325 µM	0.0273 µM and 0.0259 µM	0.0237 µM	0.017 µM	0.00744 µM	0.101 µM and 0.0455 µM	–	–	0.0126 µM
CC1(C)N=C(N)N=C(N)N1c1ccc(CCCCc2ccc(Cl)cc2Cl)cc1	13.5 µM	12.9 µM	28.8 µM	8.65 µM	6.3 µM	18 µM	3.27 µM	13.5 µM	76 µM	15.7 µM	–	–
Cc1ccc(NNc2cc(=O)[nH]c(=O)[nH]2)cc1Cl	28.5 µM	28.2 µM	> 100 µM	32 µM	> 100 µM	27.9 µM	> 100 µM	30.9 µM	62.4 µM	33.1 µM	–	–
O=C(/C(Cl)=C/c1ccccc1)c1ccccc1	16.9 µM	–	46.1 µM	19.3 µM	6.49 µM	12.9 µM	11.6 µM	28.6 µM	11.5 µM	11.7 µM	–	–
NNC(=O)CCCCCCCC(=O)O	> 100 µM	> 100 µM	> 100 µM	> 100 µM	> 100 µM	> 100 µM	> 100 µM	> 100 µM	> 100 µM	> 100 µM	–	–
Cn1c2c(c3ccccc31)CC(=O)N1CCCCC1C21OCCO1 (centres undefined)	> 100 µM	> 100 µM	> 100 µM	> 100 µM	> 100 µM	> 100 µM	> 100 µM	> 100 µM	> 100 µM	> 100 µM	–	–
O=C(NCCCCNCCCNC(=O)C(F)(F)F)C(F)(F)F	> 100 µM	> 100 µM	> 100 µM	> 100 µM	> 100 µM	> 100 µM	> 100 µM	> 100 µM	> 100 µM	> 100 µM	–	–
